Values after ≈ are worked out from the molar mass of the structure shown. Where a name gives a salt, the structure may show the parent alone.
Legend:
[1] = system: human keratinocyte cell line (HaCaT); experiment: Cytotoxic activity, antiproliferative SRB assay, non-cancerous HaCaT; format: cell-based; details: mean ± SEM, n = 3
Procedure: (§1) Hepatocellular carcinoma (HepG2; ATTC No. HB-8065) was cultured in Minimum Essential Media (MEM) supplemented with 10% heated-inactivated fetal bovine serum (FBS) and 1% penicillin–streptomycin (P/S). Cholangiocarcinoma cell line (KKU-M156) was cultured in HAM's F12 supplemented with 10% FBS, 1% P/S, and 12.5 mM HEPES. In addition, one non-cancerous human keratinocyte cell line (HaCaT; No. 300493-SF) was cultured in Dulbecco's Modified Eagle Medium (DMEM) supplemented with 10% FBS and 1% P/S [13].
(§2) This assay followed the previously described protocol. The various concentrations (1, 10, 50, and 100 µg/mL) of the crude extracts were investigated against two human cancer cell lines and one non-cancerous cell line. The cell lines were washed with PBS and the cells were detached with 0.025% trypsin–EDTA to make a single cell suspension. A 5 mL medium was then added to the flask to stop the trypsin–EDTA activity. The viable cells were counted by trypan blue exclusion in a haemocytometer. A single-cell suspensions density of HepG2, KKU-M156, and HaCaT were diluted with each medium to give optimal densities of 2 × 10^3, 3 × 10^3, and 8 × 10^3 cells/well, respectively. The 100 µL/well of these cell suspensions were seeded in 96-well plates and incubated at 37 °C with 5% CO2 at 95% humidity for 24 h. Then, 100 µL of a sample solution was added to each well. The control was the medium mixed with 2% DMSO. The 96-well plates were incubated at 37 °C with 5% CO2 at 95% humidity for 72 h. The mixture in the well was removed and washed with 200 µL fresh medium. The 96-well plate was further incubated for 72 h, then the cell in 96-well plates was fixed with 40%TCA and washed with water five times. Finally, the fixed cell in the 96-well plate was strained with Sulforhodamine B sodium salt and the percentage of inhibition of cell growth was measured colorimetrically using the SRB assay. The herbal extract and pure compounds were considered to have potent cytotoxicity if the IC50 values were ≤ 20 and ≤ 4 µg/mL, respectively. The % inhibition of cell growth was calculated by the equation shown below, and the IC50 values were calculated using the Prism program.
(§3) %Inhibitionofcellgrowth=MeanofODcontrol-MeanofODsample÷[…]×100 where: OD control = OD of medium with 2% of DMSO and OD sample = OD of crude extract.

[2] = system: cholangiocarcinoma cell line (KKU-M156); experiment: Cytotoxic activity, antiproliferative SRB assay, KKU-M156; format: cell-based, human; details: for IC50: Homo sapiens, KKU-M156, mean ± SEM, n = 3; for IC50 / Cytotoxicity against KKU-M156 (in words): SRB assay; for Selective index (SI), KKU-M156: IC50 of non-cancerous cells (HaCaT) / IC50 of KKU-M156
Procedure: as §1, §2, §3
(§4) SelectivityindexSI=IC50ofnon-cancerouscellline÷IC50ofcancercellline

[3] = system: hepatocarcinoma cell line (HepG2); experiment: Cytotoxic activity, antiproliferative SRB assay, HepG2; format: cell-based, human; details: for IC50: Homo sapiens, HepG2, mean ± SEM, n = 3; for IC50 / Cytotoxicity against HepG2 (in words): SRB assay; for Selective index (SI), HepG2: IC50 of non-cancerous cells (HaCaT) / IC50 of HepG2
Procedure: as §1, §2, §3, §4

[4] = %cytotoxicity reported with the TNF-α assay; format: cell-based, murine; details: mouse, RAW 264.7 cells, n = 3, read-out: [%cytotoxicity] at conc. 100 µg/mL (converted)
Procedure: Table 7 Anti-inflammatory on LPS-induced tumor necrosis factor-alpha production of D.cochinchinensis and PSD remedy | column: Inhibition of TNF-α production / %Inhibition and [%cytotoxicity] at conc. 100 µg/mL

[5] = system: TNF-α production; experiment: Inhibition of LPS-induced TNF-α production in RAW 264.7 (ELISA); format: cell-based, murine; details: Mus musculus, RAW264.7, LPS-induced RAW 264.7, n = 3
Procedure: The tumor necrosis factor-alpha (TNF-α) is the principal mediator of inflammation in response to gram-negative bacteria. It is mainly produced by LPS-activated mononuclear phagocytes. The TNF- α ELISA can quantify TNF-α in the supernatant of cell culture medium. The assay was carried out using the TNF-alpha ELISA kit (Thermo Fisher® scientific, USA). The murine macrophage cell line (RAW 264.7) was cultured in DMEM medium containing 10% heat-inactivated FBS, 10^4 µg/mL P/S. Firstly, the viable cells were counted using trypan blue exclusion in a haemocytometer. The single cell suspension of murine macrophage cell line was diluted with the medium to provide an optimal density of 10^5. The cell suspension was seeded, in a 100 µL/well, in 96-well plates and incubated at 37 °C with 5% CO2 atmosphere at 95% humidity for 24 h. […] Then, the test sample was added and incubated for 24 h. The control included 2% DMSO solution mixed with the medium, in place of the test samples in the analyses. This protocol was followed according to TNF-α ELISA kit (Thermo Fisher® scientific, USA). […] The concentrations of TNF- α in the wells were measured with a microplate reader at 450 nm. The % inhibition of TNF-α production was calculated using the equation below, and the IC50 values were calculated using the Prism program. […]

Row | IC50 [5] [µg/mL] | Compound | IC50 [1] [µg/mL] | IC50 [2] [µg/mL] | IC50 [3] [µg/mL] | Selective index (SI), HepG2 [3] | Selective index (SI), KKU-M156 [2] | Cytotoxicity against KKU-M156 (in words) [2] | Cytotoxicity against HepG2 (in words) [3] | cytotoxicity at 100 µg/mL [4] [%] | inhibition at 100 µg/mL ([5]; 100 µg/mL, read-out: %Inhibition of TNF-α production at conc. 100 µg/mL) [%]
1 | – | CC[C@]1(O)C[C@H]2CN(CCc3c([nH]c4ccccc34)[C@@](C(=O)OC)(c3cc4c(cc3OC)N(C=O)[C@H]3[C@@](O)(C(=O)OC)[C@H](OC(C)=O)[C@]5(CC)C=CCN6CC[C@]43[C@@H]65)C2)C1 [Vincristine sulfate, reference compound] | 7e-06 | 0.0026 ± 0.001 | 0.012 ± 0.0005 | 0.00058 | – | – | – | – | –
2 | – | COc1ccc(CCC(=O)c2ccc(O)cc2)c(OC)c1 [Compound 2] | 66 ± 0.68 (≈ 231 µM) | 33.2 ± 2.1 (≈ 116 µM) | 20.7 ± 0.49 (≈ 72.3 µM) | 3.2 | 2.0 | moderate cytotoxicity | moderate cytotoxicity | – | –
3 | – | COc1cc(OC)c(CCC(=O)c2ccc(O)cc2)c(OC)c1 [Compound 1, 1-(4-hydroxyphenyl)-3-(2,4,6-trimethoxyphenyl)propan-1-one] | 86.1 ± 2.13 (≈ 272 µM) | 21.3 ± 3.17 (≈ 67.2 µM) | 20 ± 0.46 (≈ 63.3 µM) | 4.3 | 4.1 | moderate cytotoxicity | moderate cytotoxicity | – | –
4 | > 100 | CC(=O)Nc1ccc(O)cc1 [Acetaminophen] | – | – | – | – | – | – | – | 59.2 | 18.7 ± 1.93
5 | – | COc1ccc(C[C@]2(O)COc3cc(O)cc(O)c3C2=O)cc1 [Compound 3, (3S)-3,5,7-trihydroxy-3-[(4-methoxyphenyl)methyl]-2H-chromen-4-one] | 46.5 ± 0.88 (≈ 147 µM) | 7.12 ± 0.56 (≈ 22.5 µM) | 25.8 ± 1.56 (≈ 81.4 µM) | 1.8 | 6.5 | moderate cytotoxicity | moderate cytotoxicity | – | –

Source: PMC9373486, “Exploring in vitro anti-proliferative and anti-inflammatory activities of Prasachandaeng remedy, and its bioactive compounds” (BMC Complementary Medicine and Therapies, 2022)
